Activity calls are given as the source filed them.
Experiments:
[1] = biological target: Peroxisome proliferator-activated receptor gamma/Nuclear receptor coactivator 1 (Homo sapiens, UniProt P37231); test: (§1) TR-FRET dose response biochemical High Throughput Screening assay for agonists of the steroid receptor coactivator 1 (SRC-1) recruitment by the peroxisome proliferator-activated receptor gamma (PPAR gamma): non-selective agonists. [Related pubchem assays (depositor defined):AID1300, AID1808, AID504735, AID631]; assay type: protein assay
[2] = biological target: Peroxisome proliferator-activated receptor gamma/Nuclear receptor coactivator 3 (Homo sapiens, UniProt P37231); test: as §1, with “3 (SRC-3)” for “1 (SRC-1)”, “assays: 1301 (Confirmation screen.), 1048 (Primary screen.)]” for “assays (depositor defined):AID1300, AID1808, AID504735, AID631]”; assay type: functional
[3] = biological target: Peroxisome proliferator-activated receptor gamma/Nuclear receptor coactivator 2 (Homo sapiens, UniProt P37231); test: TR-FRET dose response biochemical High Throughput Screening assay for agonists of the steroid receptor coactivator 2 (SRC-2) recruitment by the peroxisome proliferator-activated receptor gamma (PPAR gamma): non-selective agonists. [Related pubchem assays: 1297, 1032 ]; assay type: functional
Hexokinase HKDC1 = biological target: T1, Hexokinase HKDC1 (Homo sapiens, UniProt Q2TB90); test: HKDC1 hexokinase activators, dose response, biochemical, W721R variant (AID 504730); assay type: functional
T1 sequence (Q2TB90 whole entry): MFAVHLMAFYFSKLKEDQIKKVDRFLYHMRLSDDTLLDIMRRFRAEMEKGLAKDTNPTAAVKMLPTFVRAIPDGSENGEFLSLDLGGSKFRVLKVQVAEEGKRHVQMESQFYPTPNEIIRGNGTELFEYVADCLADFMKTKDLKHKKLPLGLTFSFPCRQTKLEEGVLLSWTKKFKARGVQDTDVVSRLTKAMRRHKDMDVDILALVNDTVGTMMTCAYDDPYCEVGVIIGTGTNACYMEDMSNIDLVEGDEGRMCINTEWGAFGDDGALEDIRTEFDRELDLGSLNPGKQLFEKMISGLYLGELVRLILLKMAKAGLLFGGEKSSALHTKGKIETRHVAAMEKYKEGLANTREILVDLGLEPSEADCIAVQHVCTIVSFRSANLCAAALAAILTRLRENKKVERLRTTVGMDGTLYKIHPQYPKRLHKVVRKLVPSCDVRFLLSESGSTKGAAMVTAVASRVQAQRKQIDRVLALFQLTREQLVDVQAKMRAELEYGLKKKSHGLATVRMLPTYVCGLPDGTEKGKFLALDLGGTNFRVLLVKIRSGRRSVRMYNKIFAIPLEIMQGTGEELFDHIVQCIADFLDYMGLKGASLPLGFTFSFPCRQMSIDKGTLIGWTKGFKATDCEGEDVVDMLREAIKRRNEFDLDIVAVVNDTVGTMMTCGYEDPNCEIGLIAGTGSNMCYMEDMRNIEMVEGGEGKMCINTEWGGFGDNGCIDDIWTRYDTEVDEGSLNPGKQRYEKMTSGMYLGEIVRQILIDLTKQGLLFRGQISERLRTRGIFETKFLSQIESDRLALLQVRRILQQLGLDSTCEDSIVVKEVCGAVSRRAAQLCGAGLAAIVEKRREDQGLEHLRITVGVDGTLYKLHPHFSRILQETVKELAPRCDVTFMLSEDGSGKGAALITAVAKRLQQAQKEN

Hexokinase-1 = biological target: T2, Hexokinase-1 (Homo sapiens, UniProt P19367); test: hexokinase 1 activators, dose response, selectivity assay for HKDC1 activator project, biochemical (AID 504762); assay type: functional
T2 sequence (P19367 whole entry): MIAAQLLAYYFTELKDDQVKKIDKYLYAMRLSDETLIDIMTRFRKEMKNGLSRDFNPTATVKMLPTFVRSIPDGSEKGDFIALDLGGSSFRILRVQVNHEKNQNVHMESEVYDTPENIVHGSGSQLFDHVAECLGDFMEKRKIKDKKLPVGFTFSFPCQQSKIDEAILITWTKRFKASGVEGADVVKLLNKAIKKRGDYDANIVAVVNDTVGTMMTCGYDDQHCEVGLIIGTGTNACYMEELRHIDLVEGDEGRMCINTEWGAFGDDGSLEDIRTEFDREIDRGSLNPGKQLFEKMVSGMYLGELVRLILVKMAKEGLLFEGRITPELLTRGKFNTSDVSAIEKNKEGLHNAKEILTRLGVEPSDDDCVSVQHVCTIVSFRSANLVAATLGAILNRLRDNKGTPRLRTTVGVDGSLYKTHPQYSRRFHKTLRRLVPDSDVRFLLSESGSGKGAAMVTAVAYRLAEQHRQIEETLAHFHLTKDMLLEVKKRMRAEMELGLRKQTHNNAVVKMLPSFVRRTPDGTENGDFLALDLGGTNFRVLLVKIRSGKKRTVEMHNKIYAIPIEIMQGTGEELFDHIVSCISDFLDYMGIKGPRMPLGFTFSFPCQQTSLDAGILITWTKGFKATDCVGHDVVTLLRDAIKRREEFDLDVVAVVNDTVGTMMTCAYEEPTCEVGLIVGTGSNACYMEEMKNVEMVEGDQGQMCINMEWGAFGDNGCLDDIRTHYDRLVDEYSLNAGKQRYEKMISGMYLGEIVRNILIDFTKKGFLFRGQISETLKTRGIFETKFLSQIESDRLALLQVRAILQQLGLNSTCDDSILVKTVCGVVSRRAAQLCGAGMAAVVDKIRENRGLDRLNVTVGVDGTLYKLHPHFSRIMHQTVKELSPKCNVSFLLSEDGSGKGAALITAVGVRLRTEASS

[4] = biological target: T3, G-protein coupled receptor 35 (Homo sapiens, UniProt Q9HC97); test: SAR analysis of Agonists of the GPR35 Receptor using an Image-Based Assay - Set 4. [Related pubchem assays (depositor defined):AID2013, AID2026]; assay type: functional
Cannabinoid receptor 1 [5] = biological target: T4, Cannabinoid receptor 1 (Homo sapiens, UniProt P21554); test: SAR analysis of agonists of the Cannabinoid Receptor 1 using an Image-Based Assay - Set 4. [Related pubchem assays (depositor defined):AID2013, AID2026]; assay type: functional
[6] = biological target: T3, G-protein coupled receptor 35; test: SAR analysis of Antagonists of the GPR35 Receptor using an Image-Based Assay - Set 6. [Related pubchem assays (depositor defined):AID2013, AID2026]; assay type: functional
Cannabinoid receptor 1 [7] = biological target: T4, Cannabinoid receptor 1; test: SAR analysis of antagonists of the Cannabinoid Receptor 1 using an Image-Based Assay - Set 4. [Related pubchem assays (depositor defined):AID2013, AID2026]; assay type: functional
[8] = biological target: G-protein coupled receptor 55 (Homo sapiens, UniProt Q9Y2T6); test: SAR Analysis of Selective Antagonists of GPR55 using an Image-Based Assay - Set 4. [Related pubchem assays (depositor defined):AID2013, AID2026]; assay type: functional;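 further: antagonism of response to 5 µM lysophosphatidylinositol agonist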
Cannabinoid receptor 2 [9] = biological target: T5, Cannabinoid receptor 2 (Homo sapiens, UniProt P34972); test: SAR analysis of antagonists of the Cannabinoid Receptor 2 using an Image-Based Assay - Set 3. [Related pubchem assays (depositor defined):AID2013, AID2026]; assay type: functional
Cannabinoid receptor 2 [10] = biological target: T5, Cannabinoid receptor 2; test: SAR analysis of agonists of the Cannabinoid Receptor 2 using an Image-Based Assay - Set 3. [Related pubchem assays (depositor defined):AID2013, AID2026]; assay type: functional
[11] = biological target: T6, Probable nicotinate-nucleotide adenylyltransferase (Staphylococcus aureus (strain N315), UniProt P65502); assay type: functional, Staphylococcus aureus subsp. aureus N315;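 on IC50 Mean: confirmatory dose-response retesting of NadD inhibitor hits first found in an ultra-high-throughput screen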
[12] = biological target: T6, Probable nicotinate-nucleotide adenylyltransferase; assay type: functional, Staphylococcus aureus subsp. aureus N315; conditions: read-out: IC50_Mean

T5 sequence (P34972 whole entry): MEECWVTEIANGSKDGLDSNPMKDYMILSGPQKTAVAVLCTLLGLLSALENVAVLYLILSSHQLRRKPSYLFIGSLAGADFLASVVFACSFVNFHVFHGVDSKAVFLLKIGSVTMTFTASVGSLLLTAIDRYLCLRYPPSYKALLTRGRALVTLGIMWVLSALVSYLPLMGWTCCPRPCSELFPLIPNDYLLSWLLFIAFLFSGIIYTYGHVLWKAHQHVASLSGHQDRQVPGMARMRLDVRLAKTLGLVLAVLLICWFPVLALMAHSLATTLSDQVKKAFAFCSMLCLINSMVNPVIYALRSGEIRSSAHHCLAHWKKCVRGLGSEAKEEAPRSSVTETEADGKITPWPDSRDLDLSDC
T6 sequence (P65502 whole entry): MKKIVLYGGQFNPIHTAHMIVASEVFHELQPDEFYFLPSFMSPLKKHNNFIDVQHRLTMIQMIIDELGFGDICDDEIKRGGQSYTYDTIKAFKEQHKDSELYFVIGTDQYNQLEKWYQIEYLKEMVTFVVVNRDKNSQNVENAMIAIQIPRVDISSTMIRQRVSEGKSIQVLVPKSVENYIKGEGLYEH
T3 sequence (Q9HC97 whole entry): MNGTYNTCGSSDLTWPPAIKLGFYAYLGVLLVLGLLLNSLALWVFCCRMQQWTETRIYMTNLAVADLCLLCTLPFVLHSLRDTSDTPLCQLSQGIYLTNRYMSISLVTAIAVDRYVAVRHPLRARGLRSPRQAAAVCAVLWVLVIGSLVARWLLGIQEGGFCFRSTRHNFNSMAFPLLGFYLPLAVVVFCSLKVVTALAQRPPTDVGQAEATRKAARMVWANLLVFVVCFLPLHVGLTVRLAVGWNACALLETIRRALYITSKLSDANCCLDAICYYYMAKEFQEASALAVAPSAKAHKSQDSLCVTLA
T4 sequence (P21554 whole entry): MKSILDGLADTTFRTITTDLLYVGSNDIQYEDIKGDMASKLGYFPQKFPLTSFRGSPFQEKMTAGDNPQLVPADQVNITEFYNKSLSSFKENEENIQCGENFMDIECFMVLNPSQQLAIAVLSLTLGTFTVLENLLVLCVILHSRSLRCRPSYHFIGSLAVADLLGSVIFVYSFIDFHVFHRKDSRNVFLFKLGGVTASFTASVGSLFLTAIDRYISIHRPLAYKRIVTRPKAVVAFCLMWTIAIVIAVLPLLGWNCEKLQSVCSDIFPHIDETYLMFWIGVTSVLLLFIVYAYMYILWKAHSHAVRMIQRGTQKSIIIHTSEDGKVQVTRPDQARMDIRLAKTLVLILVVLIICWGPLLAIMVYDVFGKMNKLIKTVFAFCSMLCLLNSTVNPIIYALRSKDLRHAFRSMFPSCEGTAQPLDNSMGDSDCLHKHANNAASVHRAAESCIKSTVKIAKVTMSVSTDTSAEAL
G-protein coupled receptor 55, sequence (Q9Y2T6 whole entry): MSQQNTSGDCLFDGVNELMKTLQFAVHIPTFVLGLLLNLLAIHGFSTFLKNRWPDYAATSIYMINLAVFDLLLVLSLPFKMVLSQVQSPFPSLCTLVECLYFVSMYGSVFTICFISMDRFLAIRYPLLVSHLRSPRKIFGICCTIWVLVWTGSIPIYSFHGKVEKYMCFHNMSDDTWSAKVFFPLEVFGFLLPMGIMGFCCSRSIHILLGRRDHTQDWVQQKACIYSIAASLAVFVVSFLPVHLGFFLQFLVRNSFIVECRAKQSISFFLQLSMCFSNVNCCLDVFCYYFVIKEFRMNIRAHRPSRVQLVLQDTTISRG
Peroxisome proliferator-activated receptor gamma/Nuclear receptor coactivator 1, sequence (P37231 whole entry): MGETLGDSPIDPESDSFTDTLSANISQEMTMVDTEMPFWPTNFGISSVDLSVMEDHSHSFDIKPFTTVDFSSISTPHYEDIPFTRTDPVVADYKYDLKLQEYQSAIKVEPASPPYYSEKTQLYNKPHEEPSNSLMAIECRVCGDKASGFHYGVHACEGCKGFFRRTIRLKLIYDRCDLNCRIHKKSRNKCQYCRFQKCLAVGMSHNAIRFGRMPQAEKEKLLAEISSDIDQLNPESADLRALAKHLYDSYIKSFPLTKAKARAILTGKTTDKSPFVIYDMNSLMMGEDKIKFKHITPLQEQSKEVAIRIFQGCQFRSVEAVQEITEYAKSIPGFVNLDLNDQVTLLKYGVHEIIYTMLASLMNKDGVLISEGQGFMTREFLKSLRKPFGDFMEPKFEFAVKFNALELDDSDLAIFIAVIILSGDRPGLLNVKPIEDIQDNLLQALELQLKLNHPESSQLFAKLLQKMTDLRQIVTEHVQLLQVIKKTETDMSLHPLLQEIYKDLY
Peroxisome proliferator-activated receptor gamma/Nuclear receptor coactivator 1, sequence (Q15788 whole entry, further chain): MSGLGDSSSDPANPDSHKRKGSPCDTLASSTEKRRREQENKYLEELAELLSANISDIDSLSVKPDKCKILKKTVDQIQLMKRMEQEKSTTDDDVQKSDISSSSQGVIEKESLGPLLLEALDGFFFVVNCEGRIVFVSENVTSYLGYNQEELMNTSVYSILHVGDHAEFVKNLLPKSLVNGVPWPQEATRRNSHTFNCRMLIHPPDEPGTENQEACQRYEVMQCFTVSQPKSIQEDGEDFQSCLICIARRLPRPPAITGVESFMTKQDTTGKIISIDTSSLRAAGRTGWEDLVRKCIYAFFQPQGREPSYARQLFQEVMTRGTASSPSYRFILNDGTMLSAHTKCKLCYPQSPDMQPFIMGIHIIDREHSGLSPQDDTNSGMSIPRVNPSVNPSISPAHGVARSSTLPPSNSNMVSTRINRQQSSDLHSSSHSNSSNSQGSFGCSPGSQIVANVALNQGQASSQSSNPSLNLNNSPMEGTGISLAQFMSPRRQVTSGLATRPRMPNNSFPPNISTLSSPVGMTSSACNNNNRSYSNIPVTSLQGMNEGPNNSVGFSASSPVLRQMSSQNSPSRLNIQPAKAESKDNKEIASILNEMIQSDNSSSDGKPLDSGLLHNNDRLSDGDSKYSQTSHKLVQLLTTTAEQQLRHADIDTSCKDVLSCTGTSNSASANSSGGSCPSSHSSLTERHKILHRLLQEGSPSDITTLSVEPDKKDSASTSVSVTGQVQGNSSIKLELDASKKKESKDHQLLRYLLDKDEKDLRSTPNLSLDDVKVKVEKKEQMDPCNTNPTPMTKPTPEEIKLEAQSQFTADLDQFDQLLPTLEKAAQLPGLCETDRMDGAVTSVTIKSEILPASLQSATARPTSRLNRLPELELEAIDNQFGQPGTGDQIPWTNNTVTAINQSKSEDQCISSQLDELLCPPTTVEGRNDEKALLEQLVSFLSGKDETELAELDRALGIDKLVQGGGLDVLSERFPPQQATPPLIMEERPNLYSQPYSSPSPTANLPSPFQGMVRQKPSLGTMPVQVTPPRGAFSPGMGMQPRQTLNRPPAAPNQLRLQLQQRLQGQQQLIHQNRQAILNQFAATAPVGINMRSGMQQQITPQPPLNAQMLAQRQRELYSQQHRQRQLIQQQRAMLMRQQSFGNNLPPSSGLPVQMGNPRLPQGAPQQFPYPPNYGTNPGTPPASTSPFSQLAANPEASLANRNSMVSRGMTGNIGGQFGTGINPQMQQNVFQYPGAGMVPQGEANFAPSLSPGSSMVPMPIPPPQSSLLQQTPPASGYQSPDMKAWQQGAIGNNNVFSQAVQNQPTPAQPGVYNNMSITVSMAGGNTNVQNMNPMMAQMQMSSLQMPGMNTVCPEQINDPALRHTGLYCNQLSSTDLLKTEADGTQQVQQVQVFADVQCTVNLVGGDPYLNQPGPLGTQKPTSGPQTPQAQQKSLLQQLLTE

For CCCC(=O)Nc1c2c(nc3ccccc13)N(c1ccccc1)CC2, the EC50 [1] was > 79.4 µM (inactive), the EC50 [2] was > 79.4 µM (not active) and the EC50 [3] was > 79.4 µM (not active).

For O=S(=O)(c1ccc(NC(=S)NN=C(Cc2ccccc2)Cc2ccccc2)cc1)N1CCOCC1, the EC50 (Hexokinase HKDC1) was 7.65 µM (active) and the EC50 (Hexokinase-1) was > 80 µM (inactive).

In the case of COc1ccc(-c2cc(C(=O)Nc3ccc(S(=O)(=O)Nc4onc(C)c4C)cc3)c3ccccc3n2)cc1, the EC50 [4] was > 32 µM (inactive), the EC50 (Cannabinoid receptor 1 [5]) was > 32 µM (inactive) and the IC50 [6] was > 32 µM (inactive). For the same molecule, the IC50 (Cannabinoid receptor 1 [7]) was 16.9 µM (inactive), the IC50 [8] was 18.2 µM (inactive) and the IC50 (Cannabinoid receptor 2 [9]) was > 32 µM (inactive). For the same molecule, the EC50 (Cannabinoid receptor 2 [10]) was > 32 µM (inactive), the IC50 [11] was 5.33 µM (active) and the IC50 [12] was 17.3 µM (active).

From ChEMBL document CHEMBL1201862, “PubChem BioAssay data set” (2004)
